Reference: patent publication US9029325B2, “Amylin analogues and pharmaceutical compositions thereof” (Novo Nordisk A/S, priority 2011, dated 2015)
Starred links: 1 amine or outer side, 2 acyl side, 3 side chain; linkers in the order of their positions; H or OH if unused. Positions of bridges follow the written chain, without caps; N, C: chain ends. Non-standard residues stand in square brackets, D forms with d. Residues, ends and D or L forms follow the SMILES beside them. Groups on a side chain read outwards from the residue. *: point of attachment. C20 diacid = O=C(O)CCCCCCCCCCCCCCCCCCC(=O)*; C18 diacid = O=C(O)CCCCCCCCCCCCCCCCC(=O)*; γGlu = O=C(O)[C@H](CCC(=O)[*:2])N[*:1]; Orn = NCCC[C@H](N)C(=O)O; AEEA = NCCOCCOCC(=O)O

Experiment: Assay (I) efficacy testing on appetite (food intake), ad libitum fed rat model
Format: in vivo, Sprague Dawley (SD) rats
Details: 3 nmol/kg
How it was run: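 Single ip, po or sc dosing (0.01-3 mg/kg, by body weight) at the start of the dark phase, in individually housed Sprague Dawley rats of 200-250 g with free food and water. Intake was logged per rat each hour to 7 h, then at 24 h (occasionally 48 h), against a vehicle group; outliers removed by Grubbs test.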

| SMILES | Food intake reduction 0-24 h 3 nmol/kg (%) | Food intake reduction 24-48 h 3 nmol/kg (%) |
| --- | --- | --- |
| CC[C@H](C)[C@H](NC(=O)[C@@H]1CCCN1C(=O)CNC(=O)[C@H](Cc1ccccc1)NC(=O)[C@H](CC(N)=O)NC(=O)[C@H](CC(N)=O)NC(=O)[C@H](CO)NC(=O)[C@H](CO)NC(=O)[C@H](Cc1c[nH]cn1)NC(=O)[C@H](Cc1c[nH]cn1)NC(=O)[C@H](CC(C)C)NC(=O)[C@H](Cc1ccccc1)NC(=O)[C@H](CCC(=O)O)NC(=O)[C@H](C)NC(=O)[C@H](CC(C)C)NC(=O)[C@H](CCCNC(=N)N)NC(=O)[C@H](CCC(N)=O)NC(=O)[C@@H](NC(=O)[C@H](C)NC(=O)[C@@H]1CSSC[C@H](NC(=O)[C@H](CCCCN)NC(=O)[C@H](CCC(=O)O)NC(=O)CC[C@H](NC(=O)CCCCCCCCCCCCCCCCCCC(=O)O)C(=O)O)C(=O)N[C@@H](CC(N)=O)C(=O)N[C@@H]([C@@H](C)O)C(=O)N[C@@H](C)C(=O)N[C@@H]([C@@H](C)O)C(=O)N1)[C@@H](C)O)C(=O)N[C@@H](CC(C)C)C(=O)N1CCC[C@H]1C(=O)N1CCC[C@H]1C(=O)N[C@H](C(=O)N[C@@H](CC(N)=O)C(=O)N[C@H](C(=O)NCC(=O)N[C@@H](CO)C(=O)N[C@@H](Cc1c[nH]cn1)C(=O)N[C@H](C(=O)N[C@@H](Cc1ccc(O)cc1)C(N)=O)[C@@H](C)O)C(C)C)[C@@H](C)O [compound 56] ({C20 diacid-γGlu}-EKCNTATCATQRLAEFLHHSSNNFGPILPPTNVGSHTY-NH2; disulfide 3-8) | 46 | 21 |
| CC[C@H](C)[C@H](NC(=O)[C@@H]1CCCN1C(=O)CNC(=O)[C@H](Cc1ccccc1)NC(=O)[C@H](CC(N)=O)NC(=O)[C@H](CC(N)=O)NC(=O)[C@H](CO)NC(=O)[C@H](CO)NC(=O)[C@H](Cc1c[nH]cn1)NC(=O)[C@H](CCCNC(=N)N)NC(=O)[C@H](CC(C)C)NC(=O)[C@H](Cc1ccccc1)NC(=O)[C@H](CCC(=O)O)NC(=O)[C@H](C)NC(=O)[C@H](CC(C)C)NC(=O)[C@H](CCCNC(=N)N)NC(=O)[C@H](CCC(N)=O)NC(=O)[C@@H](NC(=O)[C@H](C)NC(=O)[C@@H]1CSSC[C@H](NC(=O)[C@H](CCCCN)NC(=O)[C@H](Cc2c[nH]cn2)NC(=O)CC[C@H](NC(=O)CCCCCCCCCCCCCCCCC(=O)O)C(=O)O)C(=O)N[C@@H](CC(N)=O)C(=O)N[C@@H]([C@@H](C)O)C(=O)N[C@@H](C)C(=O)N[C@@H]([C@@H](C)O)C(=O)N1)[C@@H](C)O)C(=O)N[C@@H](CC(C)C)C(=O)N1CCC[C@H]1C(=O)N1CCC[C@H]1C(=O)N[C@H](C(=O)N[C@@H](CC(N)=O)C(=O)N[C@H](C(=O)NCC(=O)N[C@@H](CO)C(=O)N[C@@H](Cc1c[nH]cn1)C(=O)N[C@H](C(=O)N[C@@H](Cc1ccc(O)cc1)C(N)=O)[C@@H](C)O)C(C)C)[C@@H](C)O [compound 71] ({C18 diacid-γGlu}-HKCNTATCATQRLAEFLRHSSNNFGPILPPTNVGSHTY-NH2; disulfide 3-8 (inferred); C-terminus assumed) | 10 | 0 |
| CC[C@H](C)[C@H](NC(=O)[C@H](CCCCNC(=O)COCCOCCNC(=O)COCCOCCNC(=O)CC[C@H](NC(=O)CCCCCCCCCCCCCCCCC(=O)O)C(=O)O)NC(=O)CNC(=O)[C@H](Cc1ccccc1)NC(=O)[C@H](CC(N)=O)NC(=O)[C@H](CC(N)=O)NC(=O)[C@H](CO)NC(=O)[C@H](CO)NC(=O)[C@H](Cc1c[nH]cn1)NC(=O)[C@H](Cc1c[nH]cn1)NC(=O)[C@H](CC(C)C)NC(=O)[C@H](Cc1ccccc1)NC(=O)[C@H](CCC(=O)O)NC(=O)[C@H](C)NC(=O)[C@H](CC(C)C)NC(=O)[C@H](CCCNC(=N)N)NC(=O)[C@H](CCC(N)=O)NC(=O)[C@@H](NC(=O)[C@H](C)NC(=O)[C@@H]1CSSC[C@H](NC(=O)[C@@H](N)CCCCN)C(=O)N[C@@H](CC(N)=O)C(=O)N[C@@H]([C@@H](C)O)C(=O)N[C@@H](C)C(=O)N[C@@H]([C@@H](C)O)C(=O)N1)[C@@H](C)O)C(=O)N[C@@H](CC(C)C)C(=O)N1CCC[C@H]1C(=O)N1CCC[C@H]1C(=O)N[C@H](C(=O)N[C@@H](CC(N)=O)C(=O)N[C@H](C(=O)NCC(=O)N[C@@H](CO)C(=O)N[C@@H](CC(N)=O)C(=O)N[C@H](C(=O)N[C@@H](Cc1ccc(O)cc1)C(N)=O)[C@@H](C)O)C(C)C)[C@@H](C)O [compound 73] (H-KCNTATCATQRLAEFLHHSSNNFGK([AEEA-AEEA-γGlu-C18 diacid])ILPPTNVGSNTY-NH2; disulfide 2-7 (inferred); N-terminus and C-terminus assumed) | 29 | 2 |
| CC[C@H](C)[C@H](NC(=O)[C@@H]1CCCN1C(=O)CNC(=O)[C@H](Cc1ccccc1)NC(=O)[C@H](CC(N)=O)NC(=O)[C@H](CCC(N)=O)NC(=O)[C@H](CO)NC(=O)[C@H](CO)NC(=O)[C@H](Cc1c[nH]cn1)NC(=O)[C@H](Cc1c[nH]cn1)NC(=O)[C@H](CC(C)C)NC(=O)[C@H](Cc1ccccc1)NC(=O)[C@H](CCC(=O)O)NC(=O)[C@H](C)NC(=O)[C@H](CC(C)C)NC(=O)[C@H](CCCNC(=N)N)NC(=O)[C@H](CCC(N)=O)NC(=O)[C@@H](NC(=O)[C@H](C)NC(=O)[C@@H]1CSSC[C@H](NC(=O)[C@H](CCCCN)NC(=O)CC[C@H](NC(=O)CCCCCCCCCCCCCCCCCCC(=O)O)C(=O)O)C(=O)N[C@@H](CC(N)=O)C(=O)N[C@@H]([C@@H](C)O)C(=O)N[C@@H](C)C(=O)N[C@@H]([C@@H](C)O)C(=O)N1)[C@@H](C)O)C(=O)N[C@@H](CC(C)C)C(=O)N1CCC[C@H]1C(=O)N1CCC[C@H]1C(=O)N[C@H](C(=O)N[C@@H](CC(N)=O)C(=O)N[C@H](C(=O)NCC(=O)N[C@@H](CO)C(=O)N[C@@H](Cc1c[nH]cn1)C(=O)N[C@H](C(=O)N[C@@H](Cc1ccc(O)cc1)C(N)=O)[C@@H](C)O)C(C)C)[C@@H](C)O [compound 117] ({C20 diacid-γGlu}-KCNTATCATQRLAEFLHHSSQNFGPILPPTNVGSHTY-NH2; disulfide 2-7 (inferred); C-terminus assumed) | 50 | 35 |
| CC[C@H](C)[C@H](NC(=O)[C@@H]1CCCN1C(=O)CNC(=O)[C@H](Cc1ccccc1)NC(=O)[C@H](CC(N)=O)NC(=O)[C@H](CC(N)=O)NC(=O)[C@H](CO)NC(=O)[C@H](CO)NC(=O)[C@H](CCCNC(=N)N)NC(=O)[C@H](Cc1c[nH]cn1)NC(=O)[C@H](CC(C)C)NC(=O)[C@H](Cc1ccccc1)NC(=O)[C@H](CCC(=O)O)NC(=O)[C@H](C)NC(=O)[C@H](CC(C)C)NC(=O)[C@H](CCCNC(=N)N)NC(=O)[C@H](CCC(N)=O)NC(=O)[C@@H](NC(=O)[C@H](C)NC(=O)[C@@H]1CSSC[C@H](NC(=O)[C@H](CCCN)NC(=O)[C@@H](CCCNC(=N)N)NC(=O)[C@@H](CCCNC(=N)N)NC(=O)COCCOCCNC(=O)COCCOCCNC(=O)CC[C@H](NC(=O)CCCCCCCCCCCCCCCCC(=O)O)C(=O)O)C(=O)N[C@@H](CC(N)=O)C(=O)N[C@@H]([C@@H](C)O)C(=O)N[C@@H](C)C(=O)N[C@@H]([C@@H](C)O)C(=O)N1)[C@@H](C)O)C(=O)N[C@@H](CC(C)C)C(=O)N1CCC[C@H]1C(=O)N1CCC[C@H]1C(=O)N[C@H](C(=O)N[C@@H](CC(N)=O)C(=O)N[C@H](C(=O)NCC(=O)N[C@@H](CO)C(=O)N[C@@H](CC(N)=O)C(=O)N[C@H](C(=O)N[C@@H](Cc1ccc(O)cc1)C(N)=O)[C@@H](C)O)C(C)C)[C@@H](C)O [compound 120] ({C18 diacid-γGlu-AEEA-AEEA}-[dR][dR][Orn]CNTATCATQRLAEFLHRSSNNFGPILPPTNVGSNTY-NH2; disulfide 4-9 (inferred); C-terminus assumed) | 53 | 2 |
